{"source": "patent US5349127A", "about": "“Expression of herbicide metabolizing cytochromes P450” (priority 1992, dated 1994)", "key": {"[1]": {"system": "transgenic Nicotiana tabacum cv. Xanthi plants", "experiment": "In vitro pollen germination after spraying 10015 on tobacco with anther-specific P450SU1 (Example 28)", "type": "in vivo", "description": "Application of compound 10015 was as follows. The tapetal cells of the anther surround the developing pollen and are instrumental in supporting the development of mature pollen. Thus production of a toxin in the tapetal cells was expected to disrupt the development of normal mature pollen. The nontoxic compound 10015 was sprayed onto flowering transgenic plants that had anther-specific expression of P450SU1 mRNA. […] The 10015 was first dissolved in up to 0.8 ml of 0.01 N ammonium hydroxide and then diluted into AGWT (90.2% Acetone:4.8% Glycerol:4.8% Water:0.24% Tween 20 by volume). Little effect was seen when rates of less than 32 g/ha were applied. At 32 g/ha and above, effects were seen on the ability of pollen to germinate in vitro. Newly opened buds were collected at time intervals between four and 23 days after spraying. The anthers were removed and pollen was brushed into Brewbaker and Kwak medium (15% sucrose, 200 ppm calcium nitrate, 100 ppm boric acid). Growth of tubes from the pollen, indicating germination, was assessed after four hours of incubation by microscopic observation."}, "[2]": {"system": "S. lividans pCAO200SU1-FeS-B#9", "experiment": "Percent conversion of herbicides by cultures (Example 16)", "type": "in vitro ADME, Streptomyces lividans", "settings": "3.0 mg herbicide in 25 ml broth; 24 hours", "description": "(§1) Separate cultures (50 ml) inoculated with S. lividans C37, S. lividans transformed with pCAO200SU1-FeS-B#9, S. griseolus ATCC11796, S. griseolus PH2003 transformed with pIJ425, or S. ariseolus PH2003 transformed with pCS325 were cultured in sporulation broth for 18 hours at 30° C. with shaking. Each culture was then resuspended in 25 ml fresh sporulation broth and 3.0 mg herbicide added. In the case of cultures of S. griseolus ATCC11796, a second culture containing herbicide and 3.0 mg 10001 was also prepared. Each culture was reincubated for 24 hours, then an aliquot of the medium was withdrawn and analyzed by HPLC. The percent conversion of herbicide was determined."}, "[3]": {"system": "S. lividans C37", "experiment": "Percent conversion of herbicides by cultures (Example 16)", "type": "in vitro ADME, Streptomyces lividans", "settings": "3.0 mg herbicide in 25 ml broth; 24 hours", "description": "as §1"}, "[4]": {"system": "S. griseolus ATCC 11796", "experiment": "Western blot for cytochrome P450SU1 after induction with 10001 (Example 3)", "type": "cell-based, Streptomyces griseolus", "settings": "36 mg of 10001 added six hours before harvesting; not found without 10001", "description": "Western blot analysis of proteins is performed by separating the proteins by SDS polyacrylamide gel electrophoresis (Laemmli, Nature 227: 680, 1970, herein incorporated by reference) and then transferring the proteins to nitrocellulose and detecting the protein of interest with antibody specific for the protein as described by Towbin et al., Proc. Natl. Acad. Sci. U.S.A. 76: 4350-4354 (1979) and Bio-Rad bulletin 885 85-0335. (Bio-Rad Laboratories, Richmond, CA 94804), each herein incorporated by reference. Antiserum to cytochrome P450SU1 was that described by O'Keefe et al., Recent Advances in Phytochemistry 21: 151-173 (1987), herein incorporated by reference.\nS. lividans containing pCAO200, containing pCAO200SU1-FeS-B#9 and S. lividans containing […] were grown separately in 400 ml of YEME broth with-shaking at 30° C. for approximately 36 hours. S. griseolus ATCC 11796 was grown in 400 ml of sporulation broth for approximately 30 hours. Six hours before harvesting the cells from the cultures, 200 ml of YEME was added to the S. lividans cells. Six hours before harvesting, the S. griseolus culture was split into two 200 ml aliquots and 100 ml of fresh sporulation broth was added to each. […] Cytochrome P450SU1 was detected in the cultures of S. lividans transformed with either pCAO200SU1-FeS-B#9 or pCAO200SU1#12 and in the S. griseolus ATCC 11796 culture induced with 10001."}}, "data": [{"smiles": "COc1cc(OC)nc(NC(=O)NS(=O)(=O)c2cccc3c2S(=O)(=O)N(C(C)C)C3)n1", "note": "[compound 10015]", "values": [{"measurement": "pollen germination in vitro", "setting": "[1]; A-T-SU1 plants 41A and 56 A, 32 g/ha, 7 to 11 days after application", "result": 0, "unit": "%"}, {"measurement": "pollen germination in vitro", "setting": "[1]; A-T-SU1 plants 41A and 56 A, 32 g/ha, through 18 days on one plant, 13 days on the other", "result": "less than 0.1%"}, {"measurement": "pollen germination in vitro", "setting": "[1]; plant 28A, 100 g/ha, 21 days", "result": "less than 0.1%"}, {"measurement": "pollen germination in vitro", "setting": "[1]; plant 38A, 100 g/ha, 14 days, varying between buds", "result": "1-25%"}]}, {"smiles": "CCOC(=O)c1ccccc1S(=O)(=O)NC(=O)Nc1nc(Cl)cc(OC)n1", "note": "[compound 10001, N-[(4-chloro-6-methoxy-pyrimidin-2-yl)aminocarbonyl]-2-ethoxycarbonylbenzenesulfonamide]", "values": [{"measurement": "Percent Conversion", "setting": "[2]", "result": 56, "unit": "%"}, {"measurement": "Percent Conversion", "setting": "[3]", "result": 0, "unit": "%"}, {"measurement": "Cytochrome P450SU1 in culture (Western blot)", "setting": "[4]", "result": "detected"}]}]}
